From patent US11370798B2 (Vertex Pharmaceuticals Incorporated, priority 2012, dated 2022)

Test system: HCT116 colorectal cancer cells
Experiment: Cisplatin sensitization assay (96 h cell viability MTS);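 further: Test-compound concentration that lowers the Cisplatin IC50 by a set fold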
Format: cell-based
Details: compound and Cisplatin added simultaneously, Cisplatin sensitization value
Method in brief: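 Viability read by MTS (1 h at 37° C) after 96 h co-exposure at 37° C, 5% CO2. Test compound and cisplatin were dosed simultaneously in a full concentration matrix, each 2-fold serially diluted from 10 μM final; sensitization values binned in μM.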

Row | Structure (SMILES) | Cisplatin Sensitization Assay
1 | CN(C)CCOc1cc(Cl)ncc1NC(=O)c1c(N)nn2cc(Cl)cnc12 [I-O-68, 2-amino-6-chloro-N-(6-chloro-4-(2-(dimethylamino)ethoxy)pyridin-3-yl)pyrazolo[1,5-a]pyrimidine-3-carboxamide] | ++ (Cisplatin sensitization value>0.02 μM but <0.2 μM)
2 | CN1CC[C@H](Oc2ccncc2NC(=O)c2c(N)nn3cc(Cl)cnc23)C1 [I-O-69, (S)-2-amino-6-chloro-N-(4-((1-methylpyrrolidin-3-yl)oxy)pyridin-3-yl)pyrazolo[1,5-a]pyrimidine-3-carboxamide] | ++ (Cisplatin sensitization value>0.02 μM but <0.2 μM)
3 | Nc1nn2cc(Cl)cnc2c1C(=O)Nc1cnccc1Oc1cccnc1 [I-O-70, 2-amino-6-chloro-N-(4-(pyridin-3-yloxy)pyridin-3-yl)pyrazolo[1,5-a]pyrimidine-3-carboxamide] | +++ (Cisplatin sensitization value of <0.02 μM)
4 | CN(C)CCOc1cc(C(F)(F)F)ncc1NC(=O)c1c(N)nn2cc(Cl)cnc12 [I-O-71, 2-amino-6-chloro-N-(4-(2-(dimethylamino)ethoxy)-6-(trifluoromethyl)pyridin-3-yl)pyrazolo[1,5-a]pyrimidine-3-carboxamide] | + (Cisplatin sensitization value>0.2 μM but <5 μM)
5 | Nc1nn2cc(Cl)cnc2c1C(=O)Nc1cnccc1OC1CC2(CNC2)C1 [I-O-72, N-(4-(2-azaspiro[3.3]heptan-6-yloxy)pyridin-3-yl)-2-amino-6-chloropyrazolo[1,5-a]pyrimidine-3-carboxamide] | + (Cisplatin sensitization value>0.2 μM but <5 μM)
6 | Nc1nn2cc(Cl)cnc2c1C(=O)Nc1cnccc1OC1CNC1 [I-O-73, 2-amino-N-(4-(azetidin-3-yloxy)pyridin-3-yl)-6-chloropyrazolo[1,5-a]pyrimidine-3-carboxamide] | + (Cisplatin sensitization value>0.2 μM but <5 μM)
7 | Nc1nn2cc(Cl)cnc2c1C(=O)Nc1cnccc1O[C@H]1CCCNC1 [I-O-74, (S)-2-amino-6-chloro-N-(4-(piperidin-3-yloxy)pyridin-3-yl)pyrazolo[1,5-a]pyrimidine-3-carboxamide] | ++ (Cisplatin sensitization value>0.02 μM but <0.2 μM)
8 | Nc1nn2cc(Cl)cnc2c1C(=O)Nc1cnccc1OC1CCCNC1 (stereo not shown) [I-O-75, 2-amino-6-chloro-N-(4-(piperidin-3-yloxy)pyridin-3-yl)pyrazolo[1,5-a]pyrimidine-3-carboxamide] | ++ (Cisplatin sensitization value>0.02 μM but <0.2 μM)
9 | Nc1nn2cc(Cl)cnc2c1C(=O)Nc1cnccc1O[C@H]1CCNC1 [I-O-76, (S)-2-amino-6-chloro-N-(4-(pyrrolidin-3-yloxy)pyridin-3-yl)pyrazolo[1,5-a]pyrimidine-3-carboxamide] | ++ (Cisplatin sensitization value>0.02 μM but <0.2 μM)
10 | Nc1nn2cc(Cl)cnc2c1C(=O)Nc1cnccc1O[C@@H]1CCNC1 [I-O-77, (R)-2-amino-6-chloro-N-(4-(pyrrolidin-3-yloxy)pyridin-3-yl)pyrazolo[1,5-a]pyrimidine-3-carboxamide] | ++ (Cisplatin sensitization value>0.02 μM but <0.2 μM)
11 | Nc1nn2cc(Cl)cnc2c1C(=O)Nc1cnccc1O[C@H]1C[C@]2(CCN2)C1 [I-O-78, N-(4-((4s,6r)-1-azaspiro[3.3]heptan-6-yloxy)pyridin-3-yl)-2-amino-6-chloropyrazolo[1,5-a]pyrimidine-3-carboxamide] | + (Cisplatin sensitization value>0.2 μM but <5 μM)
12 | Nc1nn2cc(Cl)cnc2c1C(=O)Nc1cnccc1O[C@H]1C[C@@]2(CCN2)C1 [I-O-79, N-(4-((4r,6s)-1-azaspiro[3.3]heptan-6-yloxy)pyridin-3-yl)-2-amino-6-chloropyrazolo[1,5-a]pyrimidine-3-carboxamide] | ++ (Cisplatin sensitization value>0.02 μM but <0.2 μM)
13 | Nc1nn2cc(Cl)cnc2c1C(=O)Nc1cnccc1OC1CCNCC1 [I-O-80, 2-amino-6-chloro-N-(4-(piperidin-4-yloxy)pyridin-3-yl)pyrazolo[1,5-a]pyrimidine-3-carboxamide] | +++ (Cisplatin sensitization value of <0.02 μM)
14 | Nc1nn2cc(Cl)cnc2c1C(=O)Nc1cnccc1O[C@@H]1CCCNC1 [I-O-81, (R)-2-amino-6-chloro-N-(4-(piperidin-3-yloxy)pyridin-3-yl)pyrazolo[1,5-a]pyrimidine-3-carboxamide] | ++ (Cisplatin sensitization value>0.02 μM but <0.2 μM)
15 | N#CCc1cnc2c(C(=O)Nc3cnccc3OC3CNC3)c(N)nn2c1 [I-O-82, 2-amino-N-(4-(azetidin-3-yloxy)pyridin-3-yl)-6-(cyanomethyl)pyrazolo[1,5-a]pyrimidine-3-carboxamide] | ++ (Cisplatin sensitization value>0.02 μM but <0.2 μM)
16 | N#CCc1cnc2c(C(=O)Nc3cnccc3OCCN)c(N)nn2c1 [I-O-83, 2-amino-N-(4-(2-aminoethoxy)pyridin-3-yl)-6-(cyanomethyl)pyrazolo[1,5-a]pyrimidine-3-carboxamide] | +++ (Cisplatin sensitization value of <0.02 μM)
17 | N#CCc1cnc2c(C(=O)Nc3cnccc3OC3CCNCC3)c(N)nn2c1 [I-O-84, 2-amino-6-(cyanomethyl)-N-(4-(piperidin-4-yloxy)pyridin-3-yl)pyrazolo[1,5-a]pyrimidine-3-carboxamide] | ++ (Cisplatin sensitization value>0.02 μM but <0.2 μM)
18 | Nc1nn2cc(F)cnc2c1C(=O)Nc1cnccc1O[C@H]1CCCNC1 [I-O-85, (S)-2-amino-6-fluoro-N-(4-(piperidin-3-yloxy)pyridin-3-yl)pyrazolo[1,5-a]pyrimidine-3-carboxamide] | +++ (Cisplatin sensitization value of <0.02 μM)
19 | N#CCc1cnc2c(C(=O)Nc3cnccc3O[C@H]3CCNC3)c(N)nn2c1 [I-O-86, (S)-2-amino-6-(cyanomethyl)-N-(4-(pyrrolidin-3-yloxy)pyridin-3-yl)pyrazolo[1,5-a]pyrimidine-3-carboxamide] | ++ (Cisplatin sensitization value>0.02 μM but <0.2 μM)
20 | N#CCc1cnc2c(C(=O)Nc3cnccc3O[C@@H]3CCNC3)c(N)nn2c1 [I-O-87, (R)-2-amino-6-(cyanomethyl)-N-(4-(pyrrolidin-3-yloxy)pyridin-3-yl)pyrazolo[1,5-a]pyrimidine-3-carboxamide] | ++ (Cisplatin sensitization value>0.02 μM but <0.2 μM)
21 | CC(C)(C)Oc1ccncc1NC(=O)c1c(N)nn2cc(F)cnc12 [I-O-88, 2-amino-N-(4-(tert-butoxy)pyridin-3-yl)-6-fluoropyrazolo[1,5-a]pyrimidine-3-carboxamide] | +++ (Cisplatin sensitization value of <0.02 μM)
22 | CN1CCC(Oc2c(F)cncc2NC(=O)c2c(N)nn3cc(F)cnc23)CC1 [I-O-89, 2-amino-6-fluoro-N-(5-fluoro-4-((1-methylpiperidin-4-yl)oxy)pyridin-3-yl)pyrazolo[1,5-a]pyrimidine-3-carboxamide] | ++ (Cisplatin sensitization value>0.02 μM but <0.2 μM)
